ChEMBL document CHEMBL1141942, “Novel 7-methoxy-6-oxazol-5-yl-2,3-dihydro-1H-quinazolin-4-ones as IMPDH inhibitors” (Bioorg Med Chem Lett, 2005)
In brackets after ≈: the same amount, converted by molar mass.

Legend:
[1] = biological target: T1, Inosine-5'-monophosphate dehydrogenase 2 (Homo sapiens, UniProt P12268); experiment: Inhibitory activity against IMPDH II
PBMC = experiment: Antiproliferative activity in PMBC; format: functional, cell-based; details: Homo sapiens
[2] = Solubility at pH 6.5; format: physicochemical; details: buffer
[3] = Intrinsic clearance in human liver microsomes; format: ADME, Microsome
[4] = biological target: T1, Inosine-5'-monophosphate dehydrogenase 2; details: 10 uM
Description: Inhibitory activity against IMPDH II at 10 uM

| SMILES | IC50 [1] | solubility [2] | microsomal CLint [3] | inhibition [4] | IC50 (PBMC) |
| --- | --- | --- | --- | --- | --- |
| COc1cc2c(cc1-c1cnco1)C(=O)N(C)C(C)(C)N2 | 192 nM | 77 µg/mL (≈ 268 µM) |  |  | 21000 nM |
| COc1cc2c(cc1-c1cnco1)C(=O)N(C)C1(CCCC1)N2 | 328 nM |  |  |  | 8500 nM |
| COc1cc2c(cc1-c1cnco1)C(=O)N(CCc1ccncc1)C(C)(C)N2 | 300 nM |  |  |  | 37000 nM |
| COc1cc2c(cc1-c1cnco1)C(=O)N(C)C1(CCN(C(=O)Nc3ccccc3)C1)N2 (stereo unspecified) | 393 nM |  | 19 µL/min/mg |  | 16000 nM |
| COC(=O)[C@H]1C[C@@]2(CN1C(=O)OC(C)(C)C)Nc1cc(OC)c(-c3cnco3)cc1C(=O)N2C |  |  |  | 26% |  |
| COC(=O)[C@@H]1C[C@@]2(CN1C(=O)OC(C)(C)C)Nc1cc(OC)c(-c3cnco3)cc1C(=O)N2C | 948 nM |  |  |  |  |
| COc1cc2[nH]c(=O)n(C)c(=O)c2cc1-c1cnco1 |  | 3 µg/mL (≈ 11 µM) |  |  | 4000 nM |
| COc1cc2c(cc1-c1cnco1)C(=O)N(C)C1(CCOCC1)N2 | 526 nM |  |  |  | 11600 nM |
| COC(=O)[C@@H]1C[C@]2(CN1C(=O)OC(C)(C)C)Nc1cc(OC)c(-c3cnco3)cc1C(=O)N2C | 369 nM |  |  |  |  |

More lines, in order of falling IC50 [1], values ahead:

| IC50 [1] | solubility [2] | microsomal CLint [3] | inhibition [4] | SMILES | IC50 (PBMC) |
| --- | --- | --- | --- | --- | --- |
| 119 nM |  | 11 µL/min/mg |  | CCNC(=O)N1CCC2(C1)Nc1cc(OC)c(-c3cnco3)cc1C(=O)N2C (stereo unspecified) | 7200 nM |
| 104 nM | 101 µg/mL (≈ 244 µM) | 42 µL/min/mg |  | COc1cc2c(cc1-c1cnco1)C(=O)N(C)C1(CCN(C(=O)OC(C)(C)C)C1)N2 (stereo unspecified) | 970 nM |
| 96 nM |  |  |  | COc1cc2c(cc1-c1cnco1)C(=O)N(C)C1(Cc3ccsc3C1)N2 (stereo unspecified) | 1900 nM |
| 94 nM |  | 46 µL/min/mg |  | COc1cc2c(cc1-c1cnco1)C(=O)N(C)C1(CCN(C(=O)C(C)(C)C)C1)N2 (stereo unspecified) | 540 nM |
| 80 nM |  | 24 µL/min/mg |  | CCOC(=O)N1CCC2(C1)Nc1cc(OC)c(-c3cnco3)cc1C(=O)N2C (stereo unspecified) | 1200 nM |
| 79 nM |  | 38 µL/min/mg |  | COc1cc2c(cc1-c1cnco1)C(=O)N(C)C1(CCN(C(=O)N(C)OC)C1)N2 (stereo unspecified) | 1900 nM |
| 71 nM |  | 612 µL/min/mg |  | COc1cc2c(cc1-c1cnco1)C(=O)N(C)C1(CCN(C(=O)N(C(C)C)C(C)C)C1)N2 (stereo unspecified) | 70 nM |
| 68 nM |  | 152 µL/min/mg |  | COc1cc2c(cc1-c1cnco1)C(=O)N(C)C1(CCN(C(=O)N3CCCCC3)C1)N2 (stereo unspecified) | 1800 nM |
| 64 nM |  | 144 µL/min/mg |  | COc1cc2c(cc1-c1cnco1)C(=O)N(C)C1(CCN(C(=O)N(C)c3ccccc3)C1)N2 (stereo unspecified) | 860 nM |
| 51 nM |  | 97 µL/min/mg |  | COc1cc2c(cc1-c1cnco1)C(=O)N(C)C1(CCN(C(=O)N(C)c3ccc(F)cc3F)C1)N2 (stereo unspecified) | 1200 nM |
| 49 nM |  |  |  | COc1cc2c(cc1-c1cnco1)C(=O)N(C)C(C)(/C=C/c1ccccc1)N2 (stereo unspecified) | 3000 nM |
| 45 nM | 813 µg/mL (≈ 1970 µM) | 92 µL/min/mg |  | CCN(CC)C(=O)N1CCC2(C1)Nc1cc(OC)c(-c3cnco3)cc1C(=O)N2C (stereo unspecified) | 540 nM |
| 35 nM |  | 18 µL/min/mg |  | COC(=O)[C@H]1C[C@]2(CN1C(=O)OC(C)(C)C)Nc1cc(OC)c(-c3cnco3)cc1C(=O)N2C | 1500 nM |
